Experiment: Potency code of Table 2 (assay not stated)

Compound	Potency code
Cn1ncc(-c2ccoc2)c1-c1ccc(OCc2ccc(Cl)cc2)cc1O [NUCC-0198323]	+ (>40 +)
Cn1nc(-c2ccc(OCc3ccc(C#N)cc3)c(-c3ccc(Cl)c(C(F)(F)F)c3)c2O)cc1C(F)(F)F [NUCC-0201912]	+ (>40 +)
CCc1ccc(Oc2c(-c3ccc(O)cc3O)n[nH]c2C(F)(F)F)cc1 [NUCC-0198406]	++++ (<10 ++++)
Cn1cc(-c2ccc(OCc3ccc(Cl)cc3)cn2)c(C(F)(F)F)n1 [NUCC-0200741]	+ (>40 +)
Cn1nc(-c2ccc(OCc3ccc(Cl)cc3)cc2O)c(-c2ccccc2)c1C(F)(F)F [NUCC-0198297]	+ (>40 +)
Oc1c(-c2cc(C(F)(F)F)[nH]n2)ccc(OCc2ccc(Cl)cc2)c1-c1ccc(Cl)c(C(F)(F)F)c1 [NUCC-0200732]	+ (>40 +)
c1ccc(COc2ccccc2-c2nn[nH]c2-c2ccccc2)cc1 [NUCC-0200722]	+ (>40 +)
CCc1ccc(Oc2c[nH]nc2-c2ccc(OCc3ccc(Cl)cc3)cc2O)cc1 [NUCC-0176243]	+ (>40 +)
CCc1ccc(Oc2c[nH]nc2-c2ccc(OCc3ccncc3)cc2O)cc1 [NUCC-0176254]	+ (>40 +)
CCc1ccc(Oc2c(-c3ccc(OCc4ccc(Cl)c(Cl)c4)cc3O)n[nH]c2C(F)(F)F)cc1 [NUCC-0196355]	+++ (10-30 +++)
COc1ccc(-c2cc(C(F)(F)F)nn2C)c(O)c1-c1cc(C(F)(F)F)cc(C(F)(F)F)c1 [NUCC-0201222]	+++ (10-30 +++)
Cn1nc(C(F)(F)F)cc1-c1ccc(OCCCN)c(-c2ccc(Cl)c(C(F)(F)F)c2)c1O [NUCC-0201642]	+ (>40 +)
CC(C)CCOc1ccc(-c2cc(C(F)(F)F)[nH]n2)c(O)c1-c1ccc(Cl)c(C(F)(F)F)c1 [NUCC-0201634]	++ (30-40 ++)
Cn1nc(C(F)(F)F)cc1-c1ccc(OCc2ccc(Cl)cc2)cc1C(N)=O [NUCC-0200816]	+ (>40 +)
CC(C)CCOc1ccc(-c2cc(C(F)(F)F)[nH]n2)c(O)c1-c1cncc(C(F)(F)F)c1 [NUCC-0201636]	+ (>40 +)
Cn1nc(-c2ccc(OCc3ccc(Cl)cc3)c(-c3cccnc3)c2O)cc1C(F)(F)F [NUCC-0196364]	+ (>40 +)
Nc1ccc(COc2ccc(-c3cc(C(F)(F)F)n[nH]3)c(O)c2-c2cncc(C(F)(F)F)c2)cc1 [NUCC-0201661]	+ (>40 +)
Cn1nc(C(F)(F)F)cc1-c1ccc(OCCCNC(=O)COCCOCCOCCn2cc(COc3cccc4c3C(=O)N(C3CCC(=O)NC3=O)C4=O)nn2)c(-c2cncc(C(F)(F)F)c2)c1O (centres unmarked) [NUCC-0201703]	+ (>40 +)
Cn1nc(C(F)(F)F)cc1-c1ccc(OCc2ccc(Cl)cc2)cc1F [NUCC-0200977]	+ (>40 +)
COc1ccc(-c2c(-c3ccc(OCc4ccc(Cl)cc4)cc3O)noc2C(F)(F)F)cc1OC [NUCC-0196306]	+ (>40 +)
Cn1nc(C(F)(F)F)cc1-c1ccc(OCc2ccc(Cl)cc2)c(-c2ccc(C(N)=O)cc2)c1O [NUCC-0198409]	+ (>40 +)
Cc1[nH]nc(-c2ccc(OCc3ccc(F)cc3)cc2O)c1Oc1ccccc1 [NUCC-0176259]	+ (>40 +)
Oc1c(-c2cc(C(F)(F)F)[nH]n2)ccc(OCc2ccc(Cl)cc2)c1-c1ccc(C(F)(F)F)cc1 [NUCC-0200725]	+ (>40 +)
Oc1c(-c2cc(C(F)(F)F)[nH]n2)ccc(OCc2ccc(Cl)cc2)c1-c1cccnc1 [NUCC-0196366]	+ (>40 +)

Compound	Potency code
COc1ccc(-c2c(-c3ccc(O)cc3O)n[nH]c2C(F)(F)F)cc1OC [NUCC-0200496]	+ (>40 +)
CCCOc1ccc(-c2cc(C(F)(F)F)n[nH]2)c(O)c1-c1cc(C(F)(F)F)cc(C(F)(F)F)c1 [NUCC-0201197]	+++ (10-30 +++)
Cc1ccc(C)c(Oc2cn(C)nc2-c2ccc(OCCN3CCCCC3)cc2O)c1 [NUCC-0196299]	+ (>40 +)
CC(C)CCOc1ccc(-c2cc(C(F)(F)F)n(C)n2)c(O)c1-c1cncc(C(F)(F)F)c1 [NUCC-0201211]	+ (>40 +)
CN1CCN(c2ccc(-c3cc(C(F)(F)F)n(C)n3)c(O)c2)CC1 [NUCC-0200568]	+ (>40 +)
Cn1nc(C(F)(F)F)cc1-c1ccc(OCCc2ccc(Cl)cc2)c(-c2cc(C(F)(F)F)cc(C(F)(F)F)c2)c1O [NUCC-0201025]	++ (30-40 ++)
Oc1cc(OCc2ccc(Cl)cc2)ccc1-c1n[nH]cc1Oc1ccc(Cl)cc1 [NUCC-0196303]	+ (>40 +)
Oc1cc(OCc2ccccc2)ccc1-c1n[nH]cc1Oc1ccccc1 [NUCC-0176255]	+ (>40 +)
Cn1nc(-c2ccc(OCCCNC(=O)OC(C)(C)C)c(-c3ccc(Cl)c(C(F)(F)F)c3)c2O)cc1C(F)(F)F [NUCC-0201658]	++ (30-40 ++)
Cc1ccc(C)c(Oc2c[nH]nc2-c2ccc(OCc3ccc(Cl)cc3)cc2O)c1 [NUCC-0196284]	+ (>40 +)
Cn1cc(-c2ccc(OCc3ccc(Cl)cc3)cc2C=O)c(C(F)(F)F)n1 [NUCC-0200815]	+ (>40 +)
Cn1cc(-c2ccc(OCc3ccc(Cl)cc3)cc2Cl)c(C(F)(F)F)n1 [NUCC-0200814]	+ (>40 +)
Oc1cc(OCc2ccc(Cl)cc2)ccc1-c1n[nH]cc1-c1cc(C(F)(F)F)cc(C(F)(F)F)c1 [NUCC-0198318]	++ (30-40 ++)
CN1CCN(c2ccc(-c3cc(C(F)(F)F)[nH]n3)c(O)c2)CC1 [NUCC-0200567]	+ (>40 +)
Cn1nc(C(F)(F)F)c(Br)c1-c1ccc(OCc2ccc(Cl)cc2)cc1C#N [NUCC-0200979]	+ (>40 +)
CCc1c(-c2ccccc2)c(-c2ccc(OCc3ccc(Cl)cc3)cc2O)nn1C [NUCC-0198303]	+ (>40 +)
Oc1cccc(COc2ccc(Cl)cc2)c1-c1cc(C(F)(F)F)n[nH]1 [NUCC-0200570]	+ (>40 +)
C#CCC(N=[N+]=[N-])C(=O)Nc1ccc(COc2ccc(-c3cc(C(F)(F)F)nn3C)c(O)c2-c2cncc(C(F)(F)F)c2)cc1 (centres unmarked) [NUCC-0201698]	+ (>40 +)
Cn1nc(-c2ccc(OCCN)c(-c3ccc(Cl)c(C(F)(F)F)c3)c2O)cc1C(F)(F)F [NUCC-0201641]	+ (>40 +)
Cn1cc(-c2cccc(Cl)c2)c(-c2ccc(OCc3ccc(Cl)cc3)cc2O)n1 [NUCC-0196351]	+ (>40 +)
CCc1ccc(Oc2c(-c3ccc(OCc4ccc(Cl)c(Cl)c4)cc3O)nn(C)c2C(F)(F)F)cc1 [NUCC-0196354]	+ (>40 +)
Oc1cc(OCc2ccc(Cl)cc2)ccc1-c1n[nH]cc1-c1cccnc1 [NUCC-0198320]	+ (>40 +)
CCCCCCOc1ccc(-c2cc(C(F)(F)F)nn2C)c(O)c1-c1cncc(C(F)(F)F)c1 [NUCC-0201205]	++++ (<10 ++++)
CN/N=C(/C)c1ccc(-c2c(OCc3ccc(Cl)cc3)ccc(-c3cc(C(F)(F)F)n(C)n3)c2O)cc1 [NUCC-0198397]	+ (>40 +)

Compound	Potency code
NCCOc1ccc(-c2cc(C(F)(F)F)n[nH]2)c(O)c1-c1ccc(Cl)c(C(F)(F)F)c1 [NUCC-0201640]	+ (>40 +)
Cn1nc(-c2ccc(OCc3ccc(F)cc3)c(-c3cc(C(F)(F)F)cc(C(F)(F)F)c3)c2O)cc1C(F)(F)F [NUCC-0201035]	+ (>40 +)
Cc1[nH]nc(-c2ccc(OCc3ccc(Cl)cc3)cc2O)c1-c1ccccc1 [NUCC-0198298]	+ (>40 +)
CCc1ccc(Oc2c(-c3ccc(O)cc3O)nn(C)c2C(F)(F)F)cc1 [NUCC-0198411]	+++ (10-30 +++)
Cn1nc(C(F)(F)F)cc1-c1ccc(OCCCNC(=O)OC(C)(C)C)c(-c2ccc(Cl)c(C(F)(F)F)c2)c1O [NUCC-0201657]	+ (>40 +)
Cn1nc(-c2ccc(OCc3ccc(Cl)cc3)cc2O)c(Oc2cccc(F)c2)c1C(F)(F)F [NUCC-0196302]	+ (>40 +)
Cc1ccc(-c2c(OCc3ccc(Cl)cc3)ccc(-c3cc(C(F)(F)F)[nH]n3)c2O)cc1 [NUCC-0196344]	+++ (10-30 +++)
CCc1ccc(Oc2c[nH]nc2-c2ccc(OCCc3ccc(F)cc3)cc2O)cc1 [NUCC-0176258]	+ (>40 +)
Oc1c(-c2cc(C(F)(F)F)n[nH]2)ccc(OCc2ccc(F)cc2)c1-c1cc(C(F)(F)F)cc(C(F)(F)F)c1 [NUCC-0201033]	+ (>40 +)
CCCCOc1ccc(-c2cc(C(F)(F)F)n[nH]2)c(O)c1-c1ccc(Cl)c(C(F)(F)F)c1 [NUCC-0201225]	+ (>40 +)
Cn1nc(-c2ccc(O)c(-c3cc(C(F)(F)F)cc(C(F)(F)F)c3)c2O)cc1C(F)(F)F [NUCC-0200724]	+ (>40 +)
Oc1c(-c2cc(C(F)(F)F)[nH]n2)ccc(OCc2ccc(Cl)cc2)c1-c1ccoc1 [NUCC-0198325]	+ (>40 +)
COc1cccc(-c2c(-c3ccc(OCc4ccc(Cl)cc4)cc3O)nn(C)c2C(F)(F)F)c1 [NUCC-0198311]	+ (>40 +)
Cc1[nH]nc(-c2ccc(OCCc3ccc(Cl)cc3)cc2O)c1Oc1ccccc1 [NUCC-0176252]	+ (>40 +)
Cn1nc(C(F)(F)F)cc1-c1ccc(OCc2ccc(Cl)cc2)c(-c2cccc(C(F)(F)F)c2)c1O [NUCC-0200974]	+ (>40 +)
CCCCOc1ccc(-c2cc(C(F)(F)F)nn2C)c(O)c1-c1cncc(C(F)(F)F)c1 [NUCC-0201204]	+++ (10-30 +++)
Cn1nc(C(F)(F)F)cc1-c1ccc(OCc2ccc(Cl)cc2)c(-c2ccc(C(F)(F)F)cc2)c1O [NUCC-0200726]	+ (>40 +)
Oc1ccccc1C1=NNC(c2ccccc2)C1 (centres unmarked) [NUCC-0200685]	+ (>40 +)
Cc1ccccc1-c1cn(C)nc1-c1ccc(OCc2ccc(Cl)cc2)cc1O [NUCC-0198356]	+ (>40 +)
Cc1nn(C)c(-c2ccc(OCc3ccc(Cl)cc3)cc2O)c1-c1ccccc1 [NUCC-0198299]	+ (>40 +)
Oc1ccc(OCc2ccc(Cl)cc2)cc1-c1[nH]nc(C(F)(F)F)c1-c1ccccc1Cl [NUCC-0200576]	++++ (<10 ++++)
C#CCCC(=O)NCCCOc1ccc(-c2cc(C(F)(F)F)n[nH]2)c(O)c1-c1ccc(Cl)c(C(F)(F)F)c1 [NUCC-0201659]	+ (>40 +)
CCc1c(-c2cccc(OC)c2)c(-c2ccc(OCc3ccc(Cl)cc3)cc2O)nn1C [NUCC-0198317]	+ (>40 +)

— patent US20200392116A1, “SUBSTITUTED HETEROCYCLES AS c-MYC TARGETING AGENTS” (NORTHWESTERN UNIVERSITY, priority 2019, published 2020)
